In patent US6548495B2, “Dihydro-benzo [B] [1,4] diazepin-2-one derivatives” (Hoffmann-La Roche Inc., priority 2002, dated 2003) one finds melting point data, which are given here for 23 compounds.

`O=C1CC(c2cccc(-c3nc(CO)co3)c2)=Nc2ccc(-n3cccc3)cc2N1` [Example 26, 4-[3-(4-Hydroxymethyl-oxazol-2-yl)-phenyl]-8-pyrrol-1-yl-1,3-dihydro-benzo[b][1,4]diazepin-2-one]: the melting point was 240 to 242 °C. Compound `N#Cc1cccc(C2=Nc3cc(N4CCOCC4)c(C#N)cc3NC(=O)C2)c1` [Example 59, 2-(3-Cyano-phenyl)-8-morpholin-4-yl-4-oxo-4,5-dihydro-3H-benzo[b][1,4]diazepine-7-carbonitrile] had a melting point of 259 °C.

With `O=C1CC(c2cccc(-n3ccnc3)c2)=Nc2cc(Cl)c(C(F)(F)F)cc2N1` [Example 72, 7-Chloro-4-(3-imidazol-1-yl-phenyl)-8-trifluoromethyl-1,3-dihydro-benzo[b][1,4]diazepin-2-one], the melting point amounted to 225 °C. With `N#CCc1cc2c(cc1I)NC(=O)CC(c1cccc(-n3ccnc3)c1)=N2` [Example 37, [4-(3-Imidazol-1-yl-phenyl)-8-iodo-2-oxo-2,3-dihydro-1H-benzo[b][1,4]diazepin-7-yl]-acetonitrile], the melting point lay within 243 to 245 °C. Consider `Cc1cc2c(cc1C(F)(F)F)NC(=O)CC(c1cccc(-c3ncoc3C)c1)=N2` [Example 83, 7-Methyl-4-[3-(5-methyl-oxazol-4-yl)-phenyl]-8-trifluoromethyl-1,3-dihydro-benzo[b][1,4]diazepin-2-one], for which the melting point was 241 to 242 °C.

As for `COCCOc1cc2c(cc1-n1cccc1)NC(=O)CC(c1cccc(C#N)c1)=N2` [Example 10, 3-[8-(2-Methoxy-ethoxy)-4-oxo-7-pyrrol-1-yl-4,5-dihydro-3H-benzo[b][1,4]diazepin-2-yl]-benzonitrile], the melting point was in the range of 189 to 195 °C. Then `CN(C)Cc1cnnn1-c1cccc(C2=Nc3cc(N4CCOCC4)c(C(F)(F)F)cc3NC(=O)C2)c1` [Example 40, 4-[3-(5-Dimethylaminomethyl-[1,2,3]triazol-1-yl)-phenyl]-7-morpholin-4-yl-8-trifluoromethyl-1,3-dihydro-benzo[b][1,4]diazepin-2-one], with 180 °C. In the case of `CCOC(=O)c1nc(-c2cccc(C3=Nc4ccc(-n5cccc5)cc4NC(=O)C3)c2)cs1` [Example 28, 4-[3-(4-oxo-7-Pyrrol-1-yl-4,5-dihydro-3H-benzo[b][1,4]diazepin-2-yl)-phenyl]-thiazole-2-carboxylic Acid Ethyl Ester], the melting point is 213 to 215 °C. Then `Cc1cc2c(cc1C(F)(F)F)NC(=O)CC(c1cccc(-n3cncn3)c1)=N2` [Example 74, 7-Methyl-4-(3-[1,2,4]triazol-1-yl-phenyl)-8-trifluoromethyl-1,3-dihydro-benzo[b][1,4]diazepin-2-one], with 241 °C. As for `O=C1CC(c2cccc(-n3ccnn3)c2)=Nc2cc(Cl)c(C(F)(F)F)cc2N1` [Example 73, 7-Chloro-4-(3-[1,2,3]triazol-1-yl-phenyl)-8-trifluoromethyl-1,3-dihydro-benzo[b][1,4]diazepin-2-one], the melting point is 219 °C. Take `CC(=O)OCc1coc(-c2cccc(C3=Nc4ccc(-n5cccc5)cc4NC(=O)C3)c2)n1` [Example 78, Acetic Acid 2-[3-(4-oxo-7-Pyrrol-1-yl-4,5-dihydro-3H-benzo[b][1,4]diazepin-2-yl)-phenyl]-oxazol-4-ylmethyl Ester]: the melting point was 206 to 207 °C. On to `N#Cc1cccc(C2=Nc3ccc(-n4cc(C#N)c(-c5ccccc5Cl)c4)cc3NC(=O)C2)c1` [Example 5, 4-(2-Chloro-phenyl)-1-[2-(3-cyano-phenyl)-4-oxo-4,5-dihydro-3H-benzo[b][1,4]diazepin-7-yl]-1H-pyrrole-3-carbonitrile], for which the melting point is 252 °C (dec.). Take `COC(=O)c1cccn1-c1ccc2c(c1)NC(=O)CC(c1cccc(C#N)c1)=N2` [Example 15, 1-[2-(3-Cyano-phenyl)-4-oxo-4,5-dihydro-3H-benzo[b][1,4]diazepin-7-yl]-1H-pyrrole-2-carboxylic Acid Methyl Ester]: the melting point is > 207 °C (dec.). Turning to `N#Cc1cccc(C2=Nc3ccc(-n4cc(C#N)c(-c5ccccc5)c4)cc3NC(=O)C2)c1` [Example 6, 1-[2-(3-Cyano-phenyl)-4-oxo-4,5-dihydro-3H-benzo[b][1,4]diazepin-7-yl]-4-phenyl-1H-pyrrole-3-carbonitrile], the melting point was 274 °C (dec.).

Compound `CN(C)Cc1coc(-c2cccc(C3=Nc4ccc(-n5cccc5)cc4NC(=O)C3)c2)n1` [Example 80, 4-[3-(4-Dimethylaminomethyl-oxazol-2-yl)-phenyl]-8-pyrrol-1-yl-1,3-dihydro-benzo[b][1,4]diazepin-2-one] displayed a melting point of 172 to 175 °C. Compound `CCOc1cc2c(cc1C(F)(F)F)NC(=O)CC(c1cccc(-n3nncc3CNC3CC3)c1)=N2` [Example 54, 4-[3-(5-Cyclopropylaminomethyl-[1,2,3]triazol-1-yl)-phenyl]-7-ethoxy-8-trifluoromethyl-1,3-dihydro-benzo[b][1,4]diazepin-2-one] came in with a melting point of 80 °C. Next, `O=C1CC(c2cccc(-n3ncnc3CNC3CC3)c2)=Nc2cc(Cl)c(C(F)(F)F)cc2N1` [Example 66, 7-Chloro-4-[3-(5-cyclopropylaminomethyl-[1,2,4]triazol-1-yl)-phenyl]-8-trifluoromethyl-1,3-dihydro-benzo[b][1,4]diazepin-2-one]: 191 °C; `O=C1CC(c2cccc(-c3ocnc3C(=O)NCCO)c2)=Nc2ccc(-n3cccc3)cc2N1` [Example 24, 5-[3-(4-oxo-7-Pyrrol-1-yl-4,5-dihydro-3H-benzo[b][1,4]diazepin-2-yl)-phenyl]-oxazole-4-carboxylic Acid (2-Hydroxy-ethyl)-amide]: 228 to 230 °C; `O=C1CC(c2cccc(-n3cncn3)c2)=Nc2cc(Cl)c(C(F)(F)F)cc2N1` [Example 71, 7-Chloro-4-(3-[1,2,4]triazol-1-yl-phenyl)-8-trifluoromethyl-1,3-dihydro-benzo[b][1,4]diazepin-2-one]: 258 °C. `Cc1cc(-c2cccc(C3=Nc4cc(N5CCOCC5)c(C(F)(F)F)cc4NC(=O)C3)c2)on1` [Example 3, 4-[3-(3-Methyl-isoxazol-5-yl)-phenyl]-7-morpholin-4-yl-8-trifluoromethyl-1,3-dihydro-benzo[b][1,4]diazepin-2-one] displayed a melting point of 170 °C. In turn, `N#Cc1cc2c(cc1N1CCOCC1)N=C(c1cccc(-n3nncc3CO)c1)CC(=O)N2` [Example 60, 2-[3-(5-Hydroxymethyl-[1,2,3]triazol-1-yl)-phenyl]-8-morpholin-4-yl-4-oxo-4,5-dihydro-3H-benzo[b][1,4]diazepine-7-carbonitrile] returned a melting point of 180 °C.

The compound `O=C1CC(c2cccc(-c3cc(CO)no3)c2)=Nc2cc(N3CCOCC3)c(C(F)(F)F)cc2N1` [Example 39, 4-[3-(3-Hydroxymethyl-isoxazol-5-yl)-phenyl]-7-morpholin-4-yl-8-trifluoromethyl-1,3-dihydro-benzo[b][1,4]diazepin-2-one] showed a melting point of 196 °C. With `O=C1CC(c2cccc(-n3nncc3CO)c2)=Nc2cc(F)c(C(F)(F)F)cc2N1` [Example 51, 7-Fluoro-4-[3-(5-hydroxymethyl-[1,2,3]triazol-1-yl)-phenyl]-8-trifluoromethyl-1,3-dihydro-benzo[b][1,4]diazepin-2-one], the melting point lay in the range of 197 to 199 °C.

Broadly, the melting point is the temperature of the solid-liquid transition.
